The numbers were not newly measured in patent publication US4431807A, “4-Methyl-5-(unsubstituted and substituted phenoxy)-6-methoxy-8-(aminoalkylamino)quinolines” (priority 1981, dated 1984), which cites them from elsewhere.

One data set concerns Plasmodium berghei. To be noted: cited from earlier work.
The next data set concerns Plasmodium cynomolgi. The conditions noted are these: cited from earlier work; for Radical curative activity relative to primaquine: prior art compounds.

Where two headings read alike, the source gives them in different places.

In the case of `COc1cc(NC(C)CCCN)c2ncccc2c1Oc1ccc(F)cc1` (stereo not shown) [5-(4-Fluorophenoxy)Primaquine, 5-(4-fluorophenoxy)primaquine], the “Δ MST” value is 7.0 days in the data set with Plasmodium berghei (80 mg/kg, 5 mice, Table I) and 9 days in the data set with Plasmodium berghei (160 mg/kg, 5 mice, Table I). The Cures in the data set on Plasmodium berghei (320 mg/kg, 5 mice, Table I) is given as 5C; in the data set with Plasmodium berghei (640 mg/kg, 5 mice, Table I), 5C. In the data set on Plasmodium berghei (320 and 640 mg/kg), the Suppressive activity result was “active and non-toxic”. Also, in the data set on Plasmodium berghei (prior art compound), the “Suppressive activity relative to mefloquine” value was “distinctly inferior”. Also, the “Radical curative activity relative to primaquine” value in the data set with Plasmodium cynomolgi is given as “no more active than primaquine”.

For `COc1cc(NC(C)CCCN)c2nccc(C)c2c1` (stereo not shown) [4-Methylprimaquine, 4-methylprimaquine], the “Δ MST” value in the data set on Plasmodium berghei (160 mg/kg, 5 mice, Table I) was 9 days. Moreover, the “Δ MST” value with Plasmodium berghei (320 mg/kg, 5 mice, Table I) was 10 days. Besides, in the data set on Plasmodium berghei (640 mg/kg, 5 mice, Table I), the Cures is 3C and the Toxic deaths is given as 1T. The “Only curative (toxic) dose in suppressive test” value with Plasmodium berghei (curative only at the toxic dose) is recorded as 640 mg/kg. Moreover, the Suppressive activity result with Plasmodium berghei (non-toxic dose levels, prior art comparison) is reported as “very weak activity”. Besides, the Radical curative activity entry with Plasmodium cynomolgi (0.316 mg/kg, prior art comparison) is “inactive”. The “% cures (radical curative)” value in the data set with Plasmodium cynomolgi (1.0 mg/kg) is 100%. The “Radical curative activity relative to primaquine” value with Plasmodium cynomolgi was “comparable to primaquine and essentially equivalent in efficacy”.
